Columns and labels:
Assay in all cases: Test E pre-/postemergence plant response
Assay type in all cases: in vivo
Conditions in all cases: Postemergence, scale 0 to 100
[1] = tested on: Italian ryegrass (Lolium multiflorum)
Description: (§1) Seeds of plant species selected from bermudagrass (Cynodon dactylon), Surinam grass (Brachiaria decumbens), large crabgrass (Digitaria sanguinalis), green foxtail (Setaria viridis), goosegrass (Eleusine indica), johnsongrass (Sorghum halepense), kochia (Kochia scoparia), pitted morningglory (Ipomoea lacunosa), purple nutsedge (Cyperus rotundus), common ragweed (Ambrosia elation), black mustard (Brassica nigra), guineagrass (Panicum maximum), dallisgrass (Paspalum dilatatum), barnyardgrass (Echinochloa crus-galli), southern (S.) sandbur (Cenchrus echinatus), common sowthistle (Sonchus oleraceous), prickly sida (Sida spinosa), Italian ryegrass (Lolium multiflorum), common purslane (Portulaca oleracea), broadleaf signalgrass (Brachiaria platyphylla), common groundsel (Senecio vulgaris), common chickweed (Stellaria media), Virginia (V.) dayflower (Commelina virginica), tropical (T.) spiderwort (Commelina benghalensis), annual bluegrass (Poa annua), naked crabgrass (Digitaria nuda), itchgrass (Rottboellia cochinchinensis), quackgrass (Elytrigia repens), Canada horseweed (Conyza canadensis), field bindweed (Convolvulus arvensis), spanishneedles (Bidens bipinnata), common mallow (Malva sylvestris) and Russian thistle (Salsola kali) were planted and treated preemergence with test chemicals formulated in a non-phytotoxic solvent mixture which included a surfactant. At the same time, plants selected from these weed species were treated with postemergence applications of some of the test chemicals formulated in the same manner. Plants ranged in height from 2 to 18 cm (1- to 4-leaf stage) for postemergence treatments.
(§2) Treated plants and controls were maintained in a greenhouse for 14 to 21 days, after which time all species were compared to controls and visually evaluated. Plant response ratings, summarized in Table E, are based on a scale of 0 to 100 where 0 is no effect and 100 is complete control. A dash (-) response means no test result.

[2] = tested on: annual bluegrass (Poa annua)
Description: as §1, §2

[3] = tested on: barnyardgrass (Echinochloa crus-galli)
Description: as §1, §2

[4] = tested on: black mustard (Brassica nigra)
Description: as §1, §2

[5] = tested on: broadleaf signalgrass (Brachiaria platyphylla)
Description: as §1, §2

[6] = tested on: common groundsel (Senecio vulgaris)
Description: as §1, §2

[7] = tested on: common mallow (Malva sylvestris)
Description: as §1, §2

[8] = tested on: common purslane (Portulaca oleracea)
Description: as §1, §2

[9] = tested on: dallisgrass (Paspalum dilatatum)
Description: as §1, §2

[10] = tested on: green foxtail (Setaria viridis)
Description: as §1, §2

[11] = tested on: itchgrass (Rottboellia cochinchinensis)
Description: as §1, §2

[12] = tested on: johnsongrass (Sorghum halepense)
Description: as §1, §2

[13] = tested on: large crabgrass (Digitaria sanguinalis)
Description: as §1, §2

[14] = tested on: naked crabgrass (Digitaria nuda)
Description: as §1, §2

[15] = tested on: pitted morningglory (Ipomoea lacunosa)
Description: as §1, §2

[16] = tested on: purple nutsedge (Cyperus rotundus)
Description: as §1, §2

[17] = tested on: surinam grass (Brachiaria decumbens)
Description: as §1, §2

Cc1cc(-c2ccc(Cl)cc2)nn1-c1c(OC(=O)c2cccc(Cl)c2)cnn(C)c1=O [Compound 32]
Plant response rating, Ryegrass, Italian ([1]; 8 g ai/ha): 75 | Plant response rating, Ryegrass, Italian ([1]; 16 g ai/ha): 95 | Plant response rating, Ryegrass, Italian ([1]; 31 g ai/ha): 95 | Plant response rating, Ryegrass, Italian ([1]; 62 g ai/ha): 98 | Plant response rating, Bluegrass ([2]; 8 g ai/ha): 0 | Plant response rating, Bluegrass ([2]; 16 g ai/ha): 0 | Plant response rating, Bluegrass ([2]; 31 g ai/ha): 0 | Plant response rating, Bluegrass ([2]; 62 g ai/ha): 0 | Plant response rating, Barnyardgrass ([3]; 8 g ai/ha): 98 | Plant response rating, Barnyardgrass ([3]; 16 g ai/ha): 98 | Plant response rating, Barnyardgrass ([3]; 31 g ai/ha): 100 | Plant response rating, Barnyardgrass ([3]; 62 g ai/ha): 100 | Plant response rating, Mustard, Black ([4]; 8 g ai/ha): 0 | Plant response rating, Mustard, Black ([4]; 16 g ai/ha): 0 | Plant response rating, Mustard, Black ([4]; 31 g ai/ha): 0 | Plant response rating, Mustard, Black ([4]; 62 g ai/ha): 0 | Plant response rating, Signalgrass ([5]; 8 g ai/ha): 80 | Plant response rating, Signalgrass ([5]; 16 g ai/ha): 80 | Plant response rating, Signalgrass ([5]; 31 g ai/ha): 95 | Plant response rating, Signalgrass ([5]; 62 g ai/ha): 100 | Plant response rating, Groundsel ([6]; 8 g ai/ha): 0 | Plant response rating, Groundsel ([6]; 16 g ai/ha): 0 | Plant response rating, Groundsel ([6]; 31 g ai/ha): 0 | Plant response rating, Groundsel ([6]; 62 g ai/ha): 0 | Plant response rating, Mallow ([7]; 8 g ai/ha): 0 | Plant response rating, Mallow ([7]; 16 g ai/ha): 0 | Plant response rating, Mallow ([7]; 31 g ai/ha): 0 | Plant response rating, Mallow ([7]; 62 g ai/ha): 0 | Plant response rating, Purslane ([8]; 8 g ai/ha): 0 | Plant response rating, Purslane ([8]; 16 g ai/ha): 0 | Plant response rating, Purslane ([8]; 31 g ai/ha): 0 | Plant response rating, Purslane ([8]; 62 g ai/ha): 0 | Plant response rating, Dallisgrass ([9]; 8 g ai/ha): 0 | Plant response rating, Dallisgrass ([9]; 16 g ai/ha): 20 | Plant response rating, Dallisgrass ([9]; 31 g ai/ha): 30 | Plant response rating, Dallisgrass ([9]; 62 g ai/ha): 40 | Plant response rating, Foxtail, Green ([10]; 8 g ai/ha): 40 | Plant response rating, Foxtail, Green ([10]; 16 g ai/ha): 60 | Plant response rating, Foxtail, Green ([10]; 31 g ai/ha): 85 | Plant response rating, Foxtail, Green ([10]; 62 g ai/ha): 90 | Plant response rating, Itchgrass ([11]; 8 g ai/ha): 30 | Plant response rating, Itchgrass ([11]; 16 g ai/ha): 75 | Plant response rating, Itchgrass ([11]; 31 g ai/ha): 90 | Plant response rating, Itchgrass ([11]; 62 g ai/ha): 90 | Plant response rating, Johnsongrass ([12]; 8 g ai/ha): 50 | Plant response rating, Johnsongrass ([12]; 16 g ai/ha): 80 | Plant response rating, Johnsongrass ([12]; 31 g ai/ha): 98 | Plant response rating, Johnsongrass ([12]; 62 g ai/ha): 100 | Plant response rating, Crabgrass, Large ([13]; 8 g ai/ha): 35 | Plant response rating, Crabgrass, Large ([13]; 16 g ai/ha): 75 | Plant response rating, Crabgrass, Large ([13]; 31 g ai/ha): 75 | Plant response rating, Crabgrass, Large ([13]; 62 g ai/ha): 80 | Plant response rating, Crabgrass, Naked ([14]; 8 g ai/ha): 60 | Plant response rating, Crabgrass, Naked ([14]; 31 g ai/ha): 80 | Plant response rating, Crabgrass, Naked ([14]; 62 g ai/ha): 90 | Plant response rating, Morningglory ([15]; 8 g ai/ha): 0 | Plant response rating, Morningglory ([15]; 16 g ai/ha): 35 | Plant response rating, Morningglory ([15]; 31 g ai/ha): 35 | Plant response rating, Morningglory ([15]; 62 g ai/ha): 50 | Plant response rating, Nutsedge, Purple ([16]; 8 g ai/ha): 0 | Plant response rating, Nutsedge, Purple ([16]; 16 g ai/ha): 0 | Plant response rating, Nutsedge, Purple ([16]; 31 g ai/ha): 0 | Plant response rating, Nutsedge, Purple ([16]; 62 g ai/ha): 0 | Plant response rating, Surinam Grass ([17]; 8 g ai/ha): 80 | Plant response rating, Surinam Grass ([17]; 31 g ai/ha): 100 | Plant response rating, Surinam Grass ([17]; 62 g ai/ha): 100

Source: US20100267561A1, “HERBICIDAL PYRIDAZINONE DERIVATIVES” (priority 2007, published 2010)
